Source: paper PMC9241945 (Microbiology Spectrum, 2022)

Biological target: T1, CTP synthase PyrG (Staphylococcus aureus, UniProt A6QIX1)
T1 construct: pyrG from S. aureus Newman in pET-28a, purified on Ni-NTA
Assay: intrinsic fluorescence quenching titration
Assay type: binding

T1 sequence (A6QIX1 whole entry): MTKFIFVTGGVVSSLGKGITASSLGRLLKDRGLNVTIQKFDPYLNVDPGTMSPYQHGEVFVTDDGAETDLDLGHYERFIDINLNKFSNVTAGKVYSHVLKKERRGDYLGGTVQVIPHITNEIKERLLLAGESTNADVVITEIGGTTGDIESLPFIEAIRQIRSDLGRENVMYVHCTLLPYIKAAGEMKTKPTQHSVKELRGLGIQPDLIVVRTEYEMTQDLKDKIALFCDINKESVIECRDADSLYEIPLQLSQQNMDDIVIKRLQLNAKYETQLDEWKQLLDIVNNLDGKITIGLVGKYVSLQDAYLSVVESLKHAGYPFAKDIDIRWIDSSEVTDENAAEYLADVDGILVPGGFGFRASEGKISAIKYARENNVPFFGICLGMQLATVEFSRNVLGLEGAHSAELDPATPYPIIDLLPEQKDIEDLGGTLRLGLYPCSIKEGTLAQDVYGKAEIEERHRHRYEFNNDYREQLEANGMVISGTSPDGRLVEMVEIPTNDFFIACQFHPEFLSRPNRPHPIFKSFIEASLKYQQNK

Structure (SMILES): Nc1ncnc2c1ncn2[C@@H]1O[C@H](COP(=O)(O)OP(=O)(O)OP(=O)(O)O)[C@@H](O)[C@H]1O [ATP]
- Kd: 320 µM
